Experiment [1] has as its target T1, His tagged PTPN2 (TC45) protein (Homo sapiens, UniProt P17706).
T1 construct: His; made in house
T1 sequence (P17706 1-387 isoform P17706-2): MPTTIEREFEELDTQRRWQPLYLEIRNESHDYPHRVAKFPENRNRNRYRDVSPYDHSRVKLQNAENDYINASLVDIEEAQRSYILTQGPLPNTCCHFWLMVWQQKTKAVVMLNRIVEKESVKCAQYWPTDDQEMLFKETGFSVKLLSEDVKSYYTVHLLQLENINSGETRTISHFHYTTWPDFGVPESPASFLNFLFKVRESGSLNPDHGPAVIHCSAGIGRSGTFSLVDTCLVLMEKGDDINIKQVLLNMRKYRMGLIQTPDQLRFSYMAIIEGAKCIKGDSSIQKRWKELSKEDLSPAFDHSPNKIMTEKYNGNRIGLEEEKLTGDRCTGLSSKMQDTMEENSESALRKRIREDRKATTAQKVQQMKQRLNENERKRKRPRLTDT
Description: Mobility Shift Assay (MSA) for PTPN2 inhibitors. The format is biochemical. As to conditions: for IC50: enzyme 0.5 nM, substrate 2 μM, 10 minutes preincubation at room temperature. As for the experimental part: Example 43: Mobility Shift Assay (MSA) Used to Determine Potency of PTPN2 Inhibitors
Compound activity was determined using in house His tagged PTPN2 (TC45) protein (SEQ ID NO: 1) in an in vitro enzymatic reaction. The enzymatic assay used to determine activity was a mobility shift assay using a LabChip EZ Reader by Caliper Life Sciences. The enzymatic reaction was carried out in assay buffer (50 mM HEPES pH 7.5, 1 mM EGTA, 10 mM EDTA, 0.01% Tween® 20, and 2 mM DTT). The compounds were dispensed on a white 384 well ProxiPlate™ (PerkinElmer Catalog #6008289) plate using the Labcyte Echo at varying concentrations (12 point, 1:3 dilution). The enzyme (at 0.5 nM) was incubated with compound for 10 minutes at room temperature. Thereafter, the substrate (phosphorylated insulin receptor probe sequence: ((OG488)-(NH—CH2—CH2—O—CH2—CH2—O—CH2—CO)-T-R-D-I—(PY)-E-T-D-Y—Y—R—K—K—NH2) (SEQ ID NO: 2) was added at 2 μM to the plates and incubated for another 10 minutes at room temperature. Finally, a quench solution (water and 4-bromo-3-(2-oxo-2-propoxyethoxy)-5-(3-{[1-(phenylmethanesulfonyl)piperidin-4-yl]amino}phenyl)thiophene-2-carboxylic acid) was added to the plates, which were then run on the EZ Reader (excitation 488 nm, emission 530 nm) to measure % conversion (the amount of phosphorylated substrate which was de-phosphorylated by PTPN2). […] The % inhibition was then used to calculate the IC50 values.

The target in experiment [2] is T2, His tagged full-length PTPN1 protein (Homo sapiens, UniProt P18031).
T2 construct: His; made in house
T2 sequence (P18031 1-435): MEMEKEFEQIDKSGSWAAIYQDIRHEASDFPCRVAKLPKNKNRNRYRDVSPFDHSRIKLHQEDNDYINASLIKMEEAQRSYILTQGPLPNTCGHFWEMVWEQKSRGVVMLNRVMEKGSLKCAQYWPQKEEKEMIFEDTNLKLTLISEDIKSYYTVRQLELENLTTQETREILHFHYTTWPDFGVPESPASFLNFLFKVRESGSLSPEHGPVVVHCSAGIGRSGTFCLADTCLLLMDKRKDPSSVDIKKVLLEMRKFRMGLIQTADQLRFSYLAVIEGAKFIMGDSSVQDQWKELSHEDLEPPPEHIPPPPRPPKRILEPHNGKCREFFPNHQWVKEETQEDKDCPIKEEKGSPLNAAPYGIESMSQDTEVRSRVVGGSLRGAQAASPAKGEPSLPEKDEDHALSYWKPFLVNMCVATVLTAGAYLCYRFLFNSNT
Description: Mobility Shift Assay (MSA) for PTPN1 inhibitors. The format is biochemical. The following applies: enzyme 0.5 nM, substrate 2 μM, 10 minutes preincubation at room temperature. As for the experimental part: Example 44: Mobility Shift Assay (MSA) Used to Determine Potency of PTPN1 Inhibitors
Compound activity was determined using in house His tagged full-length PTPN1 protein (SEQ ID NO: 3) in an in vitro enzymatic reaction. The enzymatic assay used to determine activity is a mobility shift assay using a LabChip EZ Reader by Caliper Life Sciences. The enzymatic reaction was carried out in assay buffer (50 mM HEPES pH 7.5, 1 mM EGTA, 10 mM EDTA, 0.010% Tween® 20, and 2 mM DTT). The compounds were dispensed on a white 384 well ProxiPlate™ (PerkinElmer Cat #6008289) plate using a Labcyte Echo® liquid handler at varying concentrations (12 point, 1:3 dilution). The enzyme (at 0.5 nM) was incubated with compound for 10 minutes at room temperature. Thereafter, the substrate (phosphorylated insulin receptor probe sequence: ((OG488)-(NH—CH2—CH2—O—CH2—CH2—O—CH2—CO)-T-R-D-I—(PY)-E-T-D-Y—Y—R—K—K—NH2) (SEQ ID NO: 2) was added at 2 μM to the plates and incubated for another 10 minutes at room temperature. Finally, a quench solution (water and 4-bromo-3-(2-oxo-2-propoxyethoxy)-5-(3-{[1-(phenylmethanesulfonyl)piperidin-4-yl]amino}phenyl)thiophene-2-carboxylic acid) was added to the plates, which were then run on the EZ Reader (excitation 488 nm, emission 530 nm) to measure % conversion (the amount of phosphorylated substrate which was de-phosphorylated by PTPN1). […] The % inhibition was then used to calculate the IC50 values.

The subject of experiment [3] is IFNγ-induced STAT1 phosphorylation (pSTAT1) in B16F10 cells. Description: B16F10 Phospho-STAT1 HTRF proximal pharmacodynamic (PD) assay. The format is cell-based, murine. As to conditions: for EC50: B16-F10. As for the experimental part: Example 45: B16F10 (Murine Melanoma Cells) Phospho-STAT1 HTRF Proximal Pharmacodynamic (PD) Assay
B16F10 cells were grown and maintained in high glucose DMEM (Gibco, Catalog #11965-092, Dun Laoghaire Co Dublin) supplemented with 10% fetal bovine serum (Gibco, Catalog #10082-139, Dun Laoghaire Co Dublin). The cells were pelleted and resuspended in high glucose DMEM without phenol red (Gibco, Catalog #11054-020, Dun Laoghaire Co Dublin), supplemented with 10% fetal bovine serum and plated in a 384 well Corning plate (product #3765, Corning, NY) at 11,000 cells per well in a volume of 20 μL. The cells were dosed with the compounds of interest using an Echo Liquid Handler (Beckman Coulter, Brea, CA) at 50 μM top dose with 3-fold dilutions down to 0.002679 μM for a 10-point dose response. The plate was incubated for 3 hours at 37° C. and subsequently treated with recombinant mouse IFNγ (R&D Systems, Catalog #485-MI, Minneapolis, MN; 100 nM final concentration) for 10 minutes at 37° C. to induce STAT1 phosphorylation followed by 3.3 μM staurosporine treatment for 1 hour at 37° C. to terminate phosphorylation. Media was then aspirated and 20 μL of 1× lysis buffer/blocking reagent (Cisbio Phospho-STAT1 kit, part #63ADK026PEH, Bedford, MA) was added. The plate was placed on a plate shaker for 30 minutes at room temperature, sealed, and stored at −80° C. until needed. To thaw, the plate was placed on shaker at room temperature until completely thawed while the antibody master mix was made (1:40 Phospho-STAT1 Eu Cryptate antibody, 1:40 Phospho-STAT1 d2 antibody, with the detection buffer; Cisbio Phospho-STAT1 kit, part #63ADK026PEH, Bedford, MA). The antibody master mix was then dispensed at 4 μL per well into a 384 ProxiPlate Plus (PerkinElmer, part #6008289, Waltham, MA) and 16 μL of lysate was added from the Corning plate to the Proxiplate using a VIAFLO 384 (INTEGRA). The plate was incubated for 3 hours at room temperature and read on an EnVision® (Perkin Elmer) plate reader with laser excitation at 335 nm and emission at 665 nm. Dotmatics Studies (Bishop's Stortford, UK) was utilized to generate all dose-response curves and calculate EC50s and are shown in Table 2.

Where [4] appears, read: Table 2, 3 hours compound, then mouse IFNγ 100 nM 10 minutes, top dose 50 μM, read-out: B16F10 IFNγ Induced pSTAT1 EC50.

Where two headings read alike, the source gives them in different places.

By IC50 is commonly meant the midpoint of a concentration-inhibition curve. Usually EC50 stands for the midpoint of the concentration-response curve.

Turning to `O=C1CN(c2c(O)cc3c(c2F)C[C@H](NCCC2CCOC2)CS3)S(=O)(=O)N1` (stereo partly drawn) [Compound 114, 5-[(3S)-5-fluoro-7-hydroxy-3-{[2-(oxolan-3-yl)ethyl]amino}-3,4-dihydro-2H-1-benzothiopyran-6-yl]-1λ^6,2,5-thiadiazolidine-1,1,3-trione], the “Thiochromane x-fold>potency biochemical” value in experiment [1] (Table 3, PTPN2 MSA IC50 of chromane comparator over thiochromane) is listed as 6.0. In addition, the IC50 is below 10 nM in experiment [1] and 10 to 100 nM in experiment [2]. For the same compound, the EC50 in experiment [3] (setting [4]) was determined as 1780 nM; in experiment [3] (Mus musculus, Table 3, B16F10 cells, IFNγ-induced, thiochromanes (X = S) and chromane comparators (X = O), read-out: pSTAT1 EC50), 1780 nM. In addition, the “Thiochromane x-fold>potency cellular” value in experiment [3] (Table 3, pSTAT1 EC50 of chromane comparator over thiochromane) was 12.7.
For `CC(C)C(C)CN[C@@H]1CSc2cc(O)c(N3CC(=O)NS3(=O)=O)c(F)c2C1` (stereo partly drawn) [Compound 115, 5-{(3S)-3-[(2,3-dimethylbutyl)amino]-5-fluoro-7-hydroxy-3,4-dihydro-2H-1-benzothiopyran-6-yl}-1λ^6,2,5-thiadiazolidine-1,1,3-trione], the IC50 in experiment [1] and in experiment [2] was below 10 nM throughout. For the same compound, the EC50 in experiment [3] (setting [4]) is 1830 nM.
For the compound `CC(C)N[C@@H]1CSc2cc(O)c(N3CC(=O)NS3(=O)=O)c(F)c2C1` [Compound 116, 5-{(3S)-5-fluoro-7-hydroxy-3-[(propan-2-yl)amino]-3,4-dihydro-2H-1-benzothiopyran-6-yl}-1λ^6,2,5-thiadiazolidine-1,1,3-trione], the IC50 in experiment [1] is 10 to 100 nM; in experiment [2], above 100 nM. In addition, the EC50 in experiment [3] (setting [4]) came out at 17200 nM.
In the same order, the values of `O=C1CN(c2c(O)cc3c(c2F)C[C@H](NCCC2CC(F)(F)C2)CS3)S(=O)(=O)N1` [Compound 117, 5-[(3S)-3-{[2-(3,3-difluorocyclobutyl)ethyl]amino}-5-fluoro-7-hydroxy-3,4-dihydro-2H-1-benzothiopyran-6-yl]-1λ^6,2,5-thiadiazolidine-1,1,3-trione] are below 10 nM, 10 to 100 nM and 723 nM.
In the case of `O=C1CN(c2c(O)cc3c(c2F)C[C@H](NCCC2CCCCC2)CS3)S(=O)(=O)N1` [Compound 118, 5-{(3S)-3-[(2-cyclohexylethyl)amino]-5-fluoro-7-hydroxy-3,4-dihydro-2H-1-benzothiopyran-6-yl}-1λ^6,2,5-thiadiazolidine-1,1,3-trione], the IC50 in experiment [1] and in experiment [2] was below 10 nM in each case. The EC50 in experiment [3] (setting [4]) was determined as 4220 nM.
As to `CCC(CC)CCN[C@@H]1CSc2cc(O)c(N3CC(=O)NS3(=O)=O)c(F)c2C1` [Compound 119, 5-{(3S)-3-[(3-ethylpentyl)amino]-5-fluoro-7-hydroxy-3,4-dihydro-2H-1-benzothiopyran-6-yl}-1λ^6,2,5-thiadiazolidine-1,1,3-trione], the IC50 in experiment [1] is below 10 nM; in experiment [2] it was 10 to 100 nM. Moreover, the EC50 in experiment [3] (setting [4]) worked out at 6660 nM.
Consider `O=C1CN(c2c(O)cc3c(c2F)C[C@H](NCCC2CCCC2)CS3)S(=O)(=O)N1` [Compound 120, 5-{(3S)-3-[(2-cyclopentylethyl)amino]-5-fluoro-7-hydroxy-3,4-dihydro-2H-1-benzothiopyran-6-yl}-1λ^6,2,5-thiadiazolidine-1,1,3-trione], for which the IC50 in experiment [1] and in experiment [2] was below 10 nM in each case. In addition, the EC50 in experiment [3] (setting [4]) is 1010 nM.
Regarding `O=C1CN(c2c(O)cc3c(c2F)C[C@H](NCc2ccccc2)CS3)S(=O)(=O)N1` [Compound 121, 5-[(3S)-3-(benzylamino)-5-fluoro-7-hydroxy-3,4-dihydro-2H-1-benzothiopyran-6-yl]-1λ^6,2,5-thiadiazolidine-1,1,3-trione], the IC50 in experiment [1] and in experiment [2] was 10 to 100 nM in each case. Also, in experiment [3] (setting [4]), the EC50 came out at 8150 nM.
For the compound `CC(C)=CCN[C@@H]1CSc2cc(O)c(N3CC(=O)NS3(=O)=O)c(F)c2C1` [Compound 122, 5-{(3S)-5-fluoro-7-hydroxy-3-[(3-methylbut-2-en-1-yl)amino]-3,4-dihydro-2H-1-benzothiopyran-6-yl}-1λ^6,2,5-thiadiazolidine-1,1,3-trione], the IC50 in experiment [1] and in experiment [2] was 10 to 100 nM in each case. In addition, in experiment [3] (setting [4]), the EC50 was 6390 nM.
Take `O=C1CN(c2c(O)cc3c(c2F)C[C@H](NCCc2ccccc2)CS3)S(=O)(=O)N1` [Compound 123, 5-{(3S)-5-fluoro-7-hydroxy-3-[(2-phenylethyl)amino]-3,4-dihydro-2H-1-benzothiopyran-6-yl}-1λ^6,2,5-thiadiazolidine-1,1,3-trione]: the IC50 was below 10 nM in experiment [1] and 10 to 100 nM in experiment [2]. The EC50 in experiment [3] (setting [4]) amounted to 2760 nM.

The values are drawn from patent US20250042894A1, “PROTEIN TYROSINE PHOSPHATASE INHIBITORS AND METHODS OF USE THEREOF” (Calico Life Sciences LLC, priority 2021, published 2025).
